Results as given in patent US20180071313A1, “DRY EYE THERAPEUTIC AGENT […] ESTER THEREOF OR M[…] ESTER THEREOF AS AN ACTIVE INGREDIENT” (SANTEN PHARMACEUTICAL CO., LTD., priority 2015, published 2018).

Tests used:
[1] = Pharmacokinetics Study (2): nandrolone concentration in the lacrimal glands after nandrolone decanoate to eyelid skin or instillation; format: in vivo, Rabbits (Japanese White, males); conditions: 2, 4, 8, 24 hours, LC-MS/MS, FIG. 2
Procedure: A study was conducted for change over time of nandrolone concentration in the lacrimal glands after administration of nandrolone decanoate to eyelid skin, or instillation thereof.
0.4 g of nandrolone decanoate were added to castor oil followed by bringing to a volume of 20 mL and dissolving therein to prepare an ointment containing 2% (w/v) of nandrolone decanoate. In addition, a preparation of the same composition was used as an ophthalmic solution containing nandrolone decanoate.
Rabbits (Japanese White, males, purchased from Kitayama Labes Co., Ltd.) were used in the study. Fur of the right upper eyelid was shaved by using an electric hair clipper under general anesthesia on the day before drug administration followed by fitting the rabbits with Elizabethan collars prior to administration. […]
The rabbits were euthanized at 2, 4, 8 and 24 hours after administration and the right upper lacrimal gland tissue was excised (from 3 animals at each time). The lacrimal gland tissue was homogenized in methanol and the concentration of nandrolone (active form of nandrolone decanoate) in the centrifuged supernatant was measured by LC-MS/MS. The concentration of nandrolone in the lacrimal gland tissue was calculated from the wet weight of the tissue measured prior to homogenization and the concentration of nandrolone in the measured specimen.

TL in tears = experiment: Pharmacological Study (1): amount of TL in tears after administration to eyelid skin; format: in vivo, Rabbits (Japanese White, females); conditions: cream 1% (w/v), eyelid skin of one eye, once per day 40 μL, two weeks after application vs before; rabbits with lower lacrimal gland and nictitating membrane excised, ketoconazole; mean ± standard error, n=4
Procedure: A study was conducted in rabbits as to whether or not the administration of nandrolone decanoate and methenolone acetate to eyelid skin increases the amount of TL in tears.
A cream containing 1% (w/v) of nandrolone decanoate, a cream containing 1% (w/v) of methenolone acetate and a base were prepared in the manner of the compositions indicated in Table 1.
Rabbits (Japanese White, females, purchased from Kitayama Labes Co., Ltd.) were used in the study. […]
Schirmer test paper (Showa Yakuhin Kako Co., Ltd.) was inserted into the conjunctival sac of the lower eyelid before application and two weeks after application to collect tears, followed by subjecting each of the collected tear specimens to slab gel electrophoresis. Following electrophoresis, the gel was stained with Coomassie Brilliant Blue stain, all protein bands, including the TL band at a molecular weight of about 17 kilodaltons, were detected, and the percentage of TL (% TL) in the total amount of protein present in the tears was calculated by image analysis of the resulting gel. The difference between the % TL before application and the % TL after application was determined for each individual and expressed as an increase in % TL (A % TL).

[2] = system: lipophilin CL2 (L-CL2) gene; experiment: Pharmacological Study (2): expression level of lipophilin CL2 (L-CL2) gene in lacrimal gland cells, quantitative PCR; format: cell-based, rabbits (Japanese White, females); conditions: isolated rabbit lacrimal gland cells, drug culture for 2 days, 0.1% DMSO; FIG. 3
Procedure: A comparative study of the action of increasing the expression level of lipophilin CL2 (L-CL2) gene by both nandrolone decanoate and methenolone acetate was conducted by allowing both drugs to act on lacrimal gland tissue cells. Furthermore, lipophilins are proteins that are synthesized in the lacrimal gland and are observed to be present in large amounts in the tears of humans and rabbits.
Each drug was dissolved in DMSO followed by diluting with DMEM/F-12 (D/F medium) to a final DMSO concentration of 0.1%. […]
Quantitative PCR was carried out by using primers designed by respectively joining to cDNA synthesized from the drug-treated lacrimal gland cells using the CellAmp Direct RNA Prep Kit and PrimeScript RT MasterMix (both manufactured by Takara Bio, Inc.), the QuantiFast SYBR Green PCR Kit (Qiagen Corp.), Rabbit L-CL2 gene (Accession No.: NM_001082095) and Rabbit GAPDH gene (Accession No.: NM_001082253). The expression level of L-CL2 gene of each of the drug-treated cells was corrected with expression of each GAPDH gene and expressed as the relative ratio to the expression level of cells treated with base (D/F medium containing 0.1% DMSO).

Q: Which results are given for `CCCCCCCCCC(=O)O[C@H]1CC[C@H]2[C@@H]3CCC4=CC(=O)CC[C@@H]4[C@H]3CC[C@]12C` [Nandrolone decanoate, 17β-decanoyloxy-19-nor-4-androsten-3-one]?
A: concentration of nandrolone in the lacrimal gland over time ([1]; single 50 μL ointment 2% (w/v) nandrolone decanoate to right upper eyelid skin): somewhat lower than the concentration of methenolone in lacrimal gland tissue after administration of methenolone acetate to eyelid skin; concentration of nandrolone in the lacrimal gland over time ([1]; single 50 μL ophthalmic solution 2% (w/v) nandrolone decanoate by instillation into right eye): much lower than in the case of administration to eyelid skin; Δ % TL (increase in percentage of TL in total tear protein) (TL in tears): 4.30 ± 0.473%; expression of L-CL2 gene (corrected with GAPDH, relative ratio to base-treated cells) [2]: increases expression of L-CL2 gene in lacrimal gland cells
